How the values were obtained:
SETVI (Foxtail, Green) [1] = assay: Postemergence herbicidal evaluation; format: in vivo, Setaria viridis; settings: for SETVI herbicidal rating: postemergence
Outline: (§1)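 ~2-wk seedlings; postemergence spray, 40 psi; vehicle 1:1 acetone:water + 0.5% Tween 20; rate ≈0.0156–0.500 kg/ha; greenhouse hold; scored 4–5 wk after treatment, 0–9 scale vs control; repeat tests averaged.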

ORYSAT (Rice, Tebonnet) = assay: Postemergence herbicidal evaluation; format: in vivo, Oryza sativa, (L.) Tebonnet; settings: for ORYSAT herbicidal rating: postemergence
Outline: as §1

ZEAMX (Corn, Field) [2] = assay: Postemergence herbicidal evaluation; format: in vivo, Zea mays; settings: for ZEAMX herbicidal rating: postemergence
Outline: as §1

ECHCG (Barnyardgrass) = assay: Preemergence herbicidal evaluation; format: in vivo, Echinochloa crus-galli; settings: rated 4-5 weeks after treatment
Outline: (§2)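 Each species is sown separately in potting soil over roughly an inch of soil before any emergence. The soil surface then receives an aqueous acetone spray delivering about 0.0156 to 0.500 kg/ha of compound. After four to five weeks, injury is scored from 0 to 9 relative to a control.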

SETVI (Foxtail, Green) [3] = assay: Preemergence herbicidal evaluation; format: in vivo, Setaria viridis; settings: rated 4-5 weeks after treatment
Outline: as §2

[4] = test system: TRZAWR (Wheat, Winter, cv Riband); assay: Preemergence herbicidal evaluation; format: in vivo, Triticum aestivum; settings: rated 4-5 weeks after treatment
Outline: as §2

ZEAMX (Corn, Field) [5] = assay: Preemergence herbicidal evaluation; format: in vivo, Zea mays; settings: rated 4-5 weeks after treatment
Outline: as §2

[6] = test system: ECHORC (Watergrass (Calif.)); assay: Preemergence weed control under flooded paddy conditions; format: in vivo, Echinochloa oryzoides; settings: rated 3-4 weeks after treatment
Outline: (§3)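 First, seeds or propagules go into the top 0.5 cm of silt loam; next, water is held 1.5 to 3 cm over the soil; then compound (50/50 acetone/water) is pipetted into it at about 0.0313 to 0.500 kg/ha; finally plants are rated visually 0-9 after three to four weeks.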

CYPIR (Rice Flatsedge) [7] = assay: as above; format: in vivo, Cyperus iria; settings: rated 3-4 weeks after treatment
Outline: as §3

CYPSE (Flatsedge) [8] = assay: as above; format: in vivo, Cyperus serotinus; settings: rated 3-4 weeks after treatment
Outline: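 Greenhouse paddy assay. Acetone/water (50/50 v/v) solutions dosed into flood water, equivalent to about 0.0313 to 0.500 kg/ha active ingredient, over seeds planted 0.5 cm deep in silt loam. Score: 0-9 visual, based on stand, vigor, malformation, size and chlorosis, 3 to 4 weeks after treatment.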

[9] = test system: ECHORC (Watergrass (Calif.)); assay: Postemergence weed control under flooded paddy conditions; format: in vivo, Echinochloa oryzoides; settings: postemergence weeds, 3-4 weeks after treatment
Outline: (§4)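 Injury ratings (0–9 scale covering stand, vigor, malformation, size, chlorosis and overall appearance versus control) were made three to four weeks after treatment. Test material, about 0.0313 to 0.500 kg/ha a.i. in 50/50 v/v aqueous/acetone, was added to flood water 1.5 to 3 cm deep over 3 to 5 cm weeds and 1.5 to 2.5 leaf rice.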

CYPIR (Rice Flatsedge) [10] = assay: as above; format: in vivo, Cyperus iria; settings: postemergence weeds, 3-4 weeks after treatment
Outline: as §4

CYPSE (Flatsedge) [11] = assay: as above; format: in vivo, Cyperus serotinus; settings: postemergence weeds, 3-4 weeks after treatment
Outline: as §4

[12] = test system: SAGPY (Arrowhead (Pygmaea)); assay: as above; format: in vivo, Sagittaria pygmaea; settings: postemergence weeds, 3-4 weeks after treatment
Outline: as §4

C=CCN1C(=O)CSC1=Nc1cc(-n2c(=O)cc(C(F)(F)F)n(C)c2=O)c(F)cc1Cl [Compound 27]
4.5: ORYSAT herbicidal rating (ORYSAT (Rice, Tebonnet); rate 0.0630 kg/ha)
5.5: ZEAMX herbicidal rating (ZEAMX (Corn, Field) [2]; rate 0.0315 kg/ha)
7.0: Preemergence herbicidal rating TRZAWR ([4]; rate 0.1250 kg/ha) | Preemergence herbicidal rating ZEAMX (ZEAMX (Corn, Field) [5]; rate 0.0313 kg/ha) | Herbicidal rating ECHORC ([6]; 0.0625 kg/ha) | Herbicidal rating ECHORC ([9]; rate 0.0625 kg/ha)
6.0: Herbicidal rating ECHORC ([6]; 0.0313 kg/ha) | Herbicidal rating CYPIR (CYPIR (Rice Flatsedge) [7]; 0.1250 kg/ha) | Herbicidal rating ECHORC ([9]; rate 0.0313 kg/ha) | Herbicidal rating CYPIR (CYPIR (Rice Flatsedge) [10]; rate 0.1250 kg/ha)
3.0: Preemergence herbicidal rating TRZAWR ([4]; rate 0.0625 kg/ha) | Herbicidal rating CYPIR (CYPIR (Rice Flatsedge) [7]; 0.0313 kg/ha) | Herbicidal rating CYPIR (CYPIR (Rice Flatsedge) [10]; rate 0.0313 kg/ha)
8.0: Preemergence herbicidal rating ECHCG (ECHCG (Barnyardgrass); rate 0.0313 kg/ha) | Preemergence herbicidal rating ZEAMX (ZEAMX (Corn, Field) [5]; rate 0.0625 kg/ha)
5.0: ZEAMX herbicidal rating (ZEAMX (Corn, Field) [2]; rate 0.0158 kg/ha)
9.0: SETVI herbicidal rating (SETVI (Foxtail, Green) [1]; rate 0.0630 kg/ha) | Preemergence herbicidal rating ECHCG (ECHCG (Barnyardgrass); rate 0.0625 kg/ha) | Preemergence herbicidal rating ECHCG (ECHCG (Barnyardgrass); rate 0.1250 kg/ha) | Preemergence herbicidal rating ECHCG (ECHCG (Barnyardgrass); rate 0.2500 kg/ha) | Preemergence herbicidal rating SETVI (SETVI (Foxtail, Green) [3]; rate 0.0313 kg/ha) | Preemergence herbicidal rating SETVI (SETVI (Foxtail, Green) [3]; rate 0.0625 kg/ha) | Preemergence herbicidal rating SETVI (SETVI (Foxtail, Green) [3]; rate 0.1250 kg/ha) | Preemergence herbicidal rating SETVI (SETVI (Foxtail, Green) [3]; rate 0.2500 kg/ha) | Preemergence herbicidal rating TRZAWR ([4]; rate 0.2500 kg/ha) | Preemergence herbicidal rating ZEAMX (ZEAMX (Corn, Field) [5]; rate 0.1250 kg/ha) | Preemergence herbicidal rating ZEAMX (ZEAMX (Corn, Field) [5]; rate 0.2500 kg/ha) | Herbicidal rating ECHORC ([6]; 0.1250 kg/ha) | Herbicidal rating ECHORC ([6]; 0.2500 kg/ha) | Herbicidal rating CYPIR (CYPIR (Rice Flatsedge) [7]; 0.2500 kg/ha) | Herbicidal rating CYPSE (CYPSE (Flatsedge) [8]; 0.2500 kg/ha) | Herbicidal rating ECHORC ([9]; rate 0.1250 kg/ha) | Herbicidal rating ECHORC ([9]; rate 0.2500 kg/ha) | Herbicidal rating CYPIR (CYPIR (Rice Flatsedge) [10]; rate 0.2500 kg/ha) | Herbicidal rating CYPSE (CYPSE (Flatsedge) [11]; rate 0.2500 kg/ha)
0.0: Preemergence herbicidal rating ECHCG (ECHCG (Barnyardgrass); rate 0.0156 kg/ha) | Preemergence herbicidal rating SETVI (SETVI (Foxtail, Green) [3]; rate 0.0156 kg/ha) | Preemergence herbicidal rating TRZAWR ([4]; rate 0.0156 kg/ha) | Preemergence herbicidal rating ZEAMX (ZEAMX (Corn, Field) [5]; rate 0.0156 kg/ha) | Herbicidal rating CYPSE (CYPSE (Flatsedge) [8]; 0.0313 kg/ha) | Herbicidal rating CYPSE (CYPSE (Flatsedge) [8]; 0.0625 kg/ha) | Herbicidal rating CYPSE (CYPSE (Flatsedge) [8]; 0.1250 kg/ha) | Herbicidal rating CYPSE (CYPSE (Flatsedge) [11]; rate 0.0313 kg/ha) | Herbicidal rating CYPSE (CYPSE (Flatsedge) [11]; rate 0.0625 kg/ha) | Herbicidal rating CYPSE (CYPSE (Flatsedge) [11]; rate 0.1250 kg/ha) | Herbicidal rating SAGPY ([12]; rate 0.0313 kg/ha) | Herbicidal rating SAGPY ([12]; rate 0.0625 kg/ha)
6.5: ZEAMX herbicidal rating (ZEAMX (Corn, Field) [2]; rate 0.0630 kg/ha)
2.0: SETVI herbicidal rating (SETVI (Foxtail, Green) [1]; rate 0.0158 kg/ha) | ORYSAT herbicidal rating (ORYSAT (Rice, Tebonnet); rate 0.0158 kg/ha)
4.0: SETVI herbicidal rating (SETVI (Foxtail, Green) [1]; rate 0.0315 kg/ha) | Herbicidal rating CYPIR (CYPIR (Rice Flatsedge) [7]; 0.0625 kg/ha) | Herbicidal rating CYPIR (CYPIR (Rice Flatsedge) [10]; rate 0.0625 kg/ha) | Herbicidal rating SAGPY ([12]; rate 0.1250 kg/ha) | Herbicidal rating SAGPY ([12]; rate 0.2500 kg/ha)
2.5: ORYSAT herbicidal rating (ORYSAT (Rice, Tebonnet); rate 0.0315 kg/ha)

COC(=O)CCN1C(=O)CSC1=Nc1cc(-n2c(=O)cc(C(F)(F)F)n(C)c2=O)c(F)cc1Cl [Compound 28, Methyl 2-{{2-chloro-5-[3,6-dihydro-3-methyl-2,6-dioxo-4-(trifluoromethyl)-1(2H)-pyrimidinyl]-4-fluorophenyl}imino}-4-oxo-3-thiazolidinepropionate]
7.5: Postemergence herbicidal rating ZEAMX (ZEAMX (Corn, Field) [2]; Rate 0.0158 kg/ha) | Postemergence herbicidal rating ZEAMX (ZEAMX (Corn, Field) [2]; Rate 0.0315 kg/ha)
9.0: Postemergence herbicidal rating SETVI (SETVI (Foxtail, Green) [1]; Rate 0.0315 kg/ha) | Postemergence herbicidal rating SETVI (SETVI (Foxtail, Green) [1]; Rate 0.0630 kg/ha) | Postemergence herbicidal rating ZEAMX (ZEAMX (Corn, Field) [2]; Rate 0.0630 kg/ha) | Preemergence herbicidal rating ECHCG (ECHCG (Barnyardgrass); rate 0.1250 kg/ha) | Preemergence herbicidal rating ECHCG (ECHCG (Barnyardgrass); rate 0.2500 kg/ha) | Preemergence herbicidal rating SETVI (SETVI (Foxtail, Green) [3]; rate 0.1250 kg/ha) | Preemergence herbicidal rating SETVI (SETVI (Foxtail, Green) [3]; rate 0.2500 kg/ha) | Preemergence herbicidal rating ZEAMX (ZEAMX (Corn, Field) [5]; rate 0.1250 kg/ha) | Herbicidal rating ECHORC ([6]; 0.2500 kg/ha) | Herbicidal rating CYPIR (CYPIR (Rice Flatsedge) [7]; 0.0313 kg/ha) | Herbicidal rating CYPIR (CYPIR (Rice Flatsedge) [7]; 0.0625 kg/ha) | Herbicidal rating CYPIR (CYPIR (Rice Flatsedge) [7]; 0.1250 kg/ha) | Herbicidal rating CYPIR (CYPIR (Rice Flatsedge) [7]; 0.2500 kg/ha) | Herbicidal rating ECHORC ([9]; rate 0.2500 kg/ha) | Herbicidal rating CYPIR (CYPIR (Rice Flatsedge) [10]; rate 0.0313 kg/ha) | Herbicidal rating CYPIR (CYPIR (Rice Flatsedge) [10]; rate 0.0625 kg/ha) | Herbicidal rating CYPIR (CYPIR (Rice Flatsedge) [10]; rate 0.1250 kg/ha) | Herbicidal rating CYPIR (CYPIR (Rice Flatsedge) [10]; rate 0.2500 kg/ha)
0.0: Postemergence herbicidal rating SETVI (SETVI (Foxtail, Green) [1]; Rate 0.0158 kg/ha) | Preemergence herbicidal rating ECHCG (ECHCG (Barnyardgrass); rate 0.0625 kg/ha) | Preemergence herbicidal rating TRZAWR ([4]; rate 0.0625 kg/ha) | Herbicidal rating ECHORC ([6]; 0.0313 kg/ha) | Herbicidal rating CYPSE (CYPSE (Flatsedge) [8]; 0.0313 kg/ha) | Herbicidal rating CYPSE (CYPSE (Flatsedge) [8]; 0.0625 kg/ha) | Herbicidal rating CYPSE (CYPSE (Flatsedge) [8]; 0.1250 kg/ha) | Herbicidal rating CYPSE (CYPSE (Flatsedge) [8]; 0.2500 kg/ha) | Herbicidal rating ECHORC ([9]; rate 0.0313 kg/ha) | Herbicidal rating CYPSE (CYPSE (Flatsedge) [11]; rate 0.0313 kg/ha) | Herbicidal rating CYPSE (CYPSE (Flatsedge) [11]; rate 0.0625 kg/ha) | Herbicidal rating CYPSE (CYPSE (Flatsedge) [11]; rate 0.1250 kg/ha) | Herbicidal rating CYPSE (CYPSE (Flatsedge) [11]; rate 0.2500 kg/ha) | Herbicidal rating SAGPY ([12]; rate 0.0313 kg/ha) | Herbicidal rating SAGPY ([12]; rate 0.0625 kg/ha) | Herbicidal rating SAGPY ([12]; rate 0.1250 kg/ha) | Herbicidal rating SAGPY ([12]; rate 0.2500 kg/ha)
2.5: Postemergence herbicidal rating ORYSAT (ORYSAT (Rice, Tebonnet); Rate 0.0158 kg/ha)
4.0: Herbicidal rating ECHORC ([6]; 0.0625 kg/ha) | Herbicidal rating ECHORC ([9]; rate 0.0625 kg/ha)
7.0: Preemergence herbicidal rating SETVI (SETVI (Foxtail, Green) [3]; rate 0.0625 kg/ha) | Herbicidal rating ECHORC ([6]; 0.1250 kg/ha) | Herbicidal rating ECHORC ([9]; rate 0.1250 kg/ha)
3.5: Postemergence herbicidal rating ORYSAT (ORYSAT (Rice, Tebonnet); Rate 0.0315 kg/ha)
6.0: Postemergence herbicidal rating ORYSAT (ORYSAT (Rice, Tebonnet); Rate 0.0630 kg/ha)
5.0: Preemergence herbicidal rating ZEAMX (ZEAMX (Corn, Field) [5]; rate 0.0625 kg/ha)
8.0: Preemergence herbicidal rating TRZAWR ([4]; rate 0.2500 kg/ha) | Preemergence herbicidal rating ZEAMX (ZEAMX (Corn, Field) [5]; rate 0.2500 kg/ha)

Source: patent US20020137929A1, “1 - (3-heterocyclylphenyl) isothiourea, -isourea, -guanidine and -amidine herbicidal agents” (Intellectual Property Department, BASF Aktiengesellschaft, priority 1998, published 2002)
